Assay results taken from patent US8445006B2, “Biomolecular coating for implants” (Georgia Tech Research Corporation, priority 2006, dated 2013).

Columns and labels:
MC3T3-E1 cells = assay: Centrifugation cell adhesion assay on ligand-tethered SAMs; assay type: cell-based, murine; settings: for ADH50 (ligand density required for half-maximal adhesion): ligand tethered to SAMs, MC3T3-E1
Description: MC3T3-E1 murine immature osteoblast-like cells (Riken Cell Bank, Hirosawa, Japan) were used because of their expression of multiple integrins, including alpha5beta1, alpha2beta1, and alphaVbeta3. Cells were maintained at 37° C. in α-MEM supplemented with 10% FBS and 1% penicillin-streptomycin and passaged every 2-3 days via standard culture techniques.
Self-assembled monolayers (SAMs) of alkanethiols on gold were used to present well-defined, ordered surfaces with anchoring groups within a non-fouling background. Tri(ethylene glycol)-terminated alkanethiol (HS—(CH2)11—(OCH2CH2)3—OH; EG3) and carboxylic acid-terminated alkanethiol (HS—(CH2)11—(OCH2CH2)6—OCH2COOH; EG6-COOH) were previously synthesized and characterized. Gold-coated substrates were prepared by sequential deposition of titanium (100 Å) and gold (200 Å) films via an electron beam evaporator (Thermionics Laboratories, Hayward, Calif., 2×10^−6 Torr, 1 A/s) onto clean 6-well plate lids or glass coverslips. Mixed SAM surfaces were prepared on substrates by immersing in a 1.0 mM mixed solution of EG3/EG6-COOH thiols (4 h). Peptide ligands were tethered using standard peptide chemistry. Briefly, following washing in ethanol and ultrapure H2O, SAMs were incubated in 2.0 mM EDC and 5.0 mM NHS in 0.1 M 2-(N-morpho)-ethanesulfonic acid and 0.5 M NaCl (pH 6.0), and subsequently immersed in a 20 mM solution of 2-mercaptoethanol in deionized H2O. Adhesive ligands in PBS were then incubated on the activated supports for 30 min and the unreacted surface NHS esters were then quenched in 20 mM glycine. Finally, the surfaces were blocked in 1% heat-denatured bovine serum albumin (BSA) and then incubated overnight in DPBS to reduce nonspecific protein adsorption.
A modification of a centrifugation assay was used to apply controlled detachment forces to cells adhering to engineered surfaces. Multi-wells of engineered surfaces were created on gold-coated polystyrene plate lids using silicone gaskets (Grace Bio-Labs, Bend, Oreg.). Mixed SAMs were assembled and ligands tethered at varying densities. MC3T3-E1 cells were labeled with […] calcein-AM, a membrane-permeable green fluorescent dye, in 2 mM dextrose-DPBS for 30 min and resuspended in α-MEM with 10% FBS. Cells were seeded onto the surfaces at 200 cells/mm^2, and allowed to attach for 1 h at 37° C. For blocking antibody experiments, cells were incubated in the presence of function-perturbing antibodies (10 μg/ml) for 10 min with gentle agitation prior to cell seeding. Before centrifugation, cell images were taken using a Nikon TE-300 fluorescence microscope and Spot RT digital camera. Wells were then filled completely with dextrose-PBS, sealed, inverted, and centrifuged for 5 min at a prescribed speed on a Beckman Allegra 6 centrifuge (GH 3.8 rotor) to apply normal detachment forces. Media was then gently aspirated from the wells, and wells were refilled for post-spin image collection. Post/pre-spin cell ratios were determined by image analysis, and this adhesive fraction was plotted against ligand surface density to obtain cell adhesion profiles.

osteoblastic cells = assay: In vitro bioresistance and adhesive capacity of poly(OEGMA) brushes on titanium; assay type: cell-based; settings: serum-containing media, osteoblastic cells 1 h
Description: Surfaces were incubated in serum-containing media for various times and subsequently challenged with osteoblastic cells for 1 h.

FAK = FAK phosphorylation on ligand-tethered brush surfaces with integrin blocking antibodies; assay type: cell-based, rat; settings: for effect of integrin blocking antibodies on FAK phosphorylation: anti-α5 and anti-β3 antibodies
Description: Cells were detached and gently agitated in serum-free suspension for 45 min to reduce background. Cells were then seeded at 200 cells/mm^2 serum-free for 1 h. Cells were lysed in RIPA buffer (1% Triton X-100, 1% sodium deoxycholate, 0.1% SDS, 150 mM NaCl, 150 mM Tris-HCl (pH 7.2), 350 μg/ml PMSF, 10 μg/ml leupeptin, and 10 μg/ml aprotonin) for 20 min on ice. Samples were pipetted up and down 20 times and centrifuged at 8000 g for 10 min to shear DNA and isolate protein contents. Total protein was quantified using micro-BCA (Pierce). Equal amounts of protein were boiled for 10 min in Laemmli buffer and separated by SDS-PAGE on a 7% gel, transferred to nitrocellulose membranes, and blocked with Blotto (5% nonfat dry milk, 0.20% Tween-20) overnight at 4° C. Membranes were gently rocked in antibodies against FAK and specific phosphorylated FAK tyrosine residues (anti-total FAK at 1 μg/ml, anti-FAK pY397 at 0.35 μg/ml, anti-FAK pY576 at 0.5 μg/ml) for 1 h. After washing with TBS-Tween (20 mM Tris HCl pH 7.6, 137 mM NaCl, 0.1% Tween-20), secondary antibody (biotin-conjugated anti-rabbit IgG; 1:20,000) was added for 1 h, followed by alkaline phosphatase-conjugated anti-biotin antibody (1:10,000) in Blotto. Immunoreactivity was assessed by ECF fluorescent substrate. FAK bands were visualized by a Fuji Image Analyzer and phosphorylation levels normalized to total FAK.
FAK is an intracellular signaling molecule involved in integrin-mediated signal transduction and the osteogenic differentiation pathway. Phosphotyrosine-specific antibodies were used to examine the activation state of three important tyrosines in FAK: Y397 (autophosphorylation site), Y576 (essential for maximal kinase activity), and Y861 (major Src phosphorylation site) (FIG. 13C). […] These differences in integrin binding specificity and FAK activation modulate cell signaling pathways and higher order cellular activities.

[1] = test system: bone marrow stromal cells; assay: Centrifugation cell adhesion assay on poly(OEGMA) brush titanium surfaces; assay type: cell-based, rat; settings: poly(OEGMA) brushes, 0.9 pmol/cm^2 ligand; for cell adhesion, no antibody: serum exposure
Description: Cell adhesion to functionalized and untreated titanium surfaces was measured using a centrifugation assay that applies controlled detachment forces. […] Control titanium slides were coated with 10% FBS (to model serum protein adsorption) or blocking buffer (5% non-fat dry milk in PBS to produce a non adhesive support). Stromal cells were loaded with the fluorescent dye calcein-AM (2 μg/ml, Molecular Probes), detached using trypsin+EDTA, and resuspended serum-free in PBS with 2 mM dextrose. Cells were seeded onto the substrates (10,000 cells/well) for 1 h at 37° C. […] After filling the wells with PBS/dextrose and sealing with transparent adhesive tape, substrates were inverted and spun at a fixed speed in a centrifuge (Beckman Allegra 6, GH 3.8 rotor) to apply a centrifugal force corresponding to 12 g. After centrifugation, media was exchanged and fluorescence intensity was read to measure remaining adherent cells. For each well, adherent cell fraction was calculated as the ratio of post-spin to pre-spin fluorescence readings.
In vitro evaluation of these engineered titanium surfaces was performed using primary rat bone marrow stromal cells since this heterogeneous population contains osteoprogenitors, and human bone marrow stromal cells are currently used in clinical applications. Cell adhesion was examined using a centrifugation assay that applies a controlled detachment force. […] As a complementary test of integrin specificity, integrin binding was quantified using a biochemical cross-linking/extraction/reversal technique.

[2] = maximum ligand density, normalized to unblocked controls
[3] = vs RGD-functionalized brushes and serum-exposed titanium

| Substance | ADH50 (ligand density required for half-maximal adhesion) (MC3T3-E1 cells) [fmol/cm^2] | adhesion with blocking antibodies against α5β1 integrin (MC3T3-E1 cells; [2]) | reduction of adhesion by antibodies against β3 integrin subunit (MC3T3-E1 cells; [2]) | cell adhesion on ligand-presenting poly(OEGMA) brushes (osteoblastic cells) | effect of integrin blocking antibodies on FAK phosphorylation (FAK) | FAK Y397 phosphorylation (FAK; [3]) | FAK Y576 phosphorylation (FAK; [3]) | cell adhesion with anti-αv antibody [1] | cell adhesion with blocking anti-α5 antibody [1] | cell adhesion, no antibody [1] | FAK Y861 phosphorylation (FAK; relative to FNIII7-10-tethered surface) |
| --- | --- | --- | --- | --- | --- | --- | --- | --- | --- | --- | --- |
| FNIII7-10: monobiotinylated recombinant fibronectin fragment spanning the 7-10th type III repeats of fibronectin; α5β1 integrin ligand | 70 | reduced adhesion to background levels | did not alter adhesion significantly | comparable to the unmodified titanium | blocking antibodies against α5, but not β3, reduced the levels of phospho-Y397 and Y576 | higher phosphorylation levels | higher phosphorylation levels | had no effect | completely eliminated cell adhesion | high levels of cell adhesion | – |
| GRGDSPC [RGD peptide, linear RGD oligopeptide purchased from BACHEM; primarily supports αvβ3-mediated adhesion, reference compound] | 2300 | only slightly reduced adhesion | – | comparable to the unmodified titanium | only the anti-β3 antibody reduced FAK phosphorylation | – | – | eliminated adhesion | – | high levels of cell adhesion | elevated |
